Measured values published in ChEMBL document CHEMBL3885881, “DrugMatrix”.

Species: Rattus norvegicus
Experiment: DrugMatrix - Regimen: Daily Repeat
Format: toxicity, organism-based, Sprague-Dawley
Set-up: regimen Daily Repeat, gender Male, age 6-8 weeks
Settings: in vivo, po, route oral GAVAGE, vehicle .5 % CMC; for ABSOLUTE BASOPHIL / ABSOLUTE EOSINOPHIL / ABSOLUTE LYMPHOCYTE / ABSOLUTE MONOCYTE / ABSOLUTE SEGMENTED NEUTROPHIL / BASOPHIL / EOSINOPHIL / ERYTHROCYTE COUNT / HEMATOCRIT / HEMOGLOBIN / LEUKOCYTE COUNT / LYMPHOCYTE / MEAN CORPUSCULAR HEMOGLOBIN / MEAN CORPUSCULAR HEMOGLOBIN CONCENTRATION / MEAN CORPUSCULAR VOLUME / MONOCYTE / NEUTROPHIL / NUCLEATED RED BLOOD CELLS / PLATELET COUNT: tissue Blood; for ALANINE AMINOTRANSFERASE / ALBUMIN / ALKALINE PHOSPHATASE / ASPARTATE AMINOTRANSFERASE / BLOOD UREA NITROGEN / CARBON DIOXIDE / CHLORIDE / CHOLESTEROL / CREATINE PHOSPHOKINASE / CREATININE / GLUCOSE / LACTATE DEHYDROGENASE / LIPASE / PHOSPHORUS / POTASSIUM / SODIUM / TOTAL BILIRUBIN / TOTAL PROTEIN / URIC ACID: tissue Plasma
[1] = 0 mg/kg, 72 h, dose level Control, time 3 day
[2] = 0 mg/kg, 120 h, dose level Control, time 5 day
[3] = 200 mg/kg, 72 h, dose level Low, time 3 day

## CCC1=C(C)CN(C(=O)NCCc2ccc(S(=O)(=O)NC(=O)N[C@H]3CC[C@H](C)CC3)cc2)C1=O [GLIMEPIRIDE]
[1]
  ABSOLUTE BASOPHIL: 0 CELLS/uL
  ABSOLUTE EOSINOPHIL: 0 CELLS/uL
  ABSOLUTE LYMPHOCYTE: 12191.17 CELLS/uL
  ABSOLUTE MONOCYTE: 183.17 CELLS/uL
  ABSOLUTE SEGMENTED NEUTROPHIL: 1192.33 CELLS/uL
  BASOPHIL: 0%
  EOSINOPHIL: 0%
  ERYTHROCYTE COUNT: 5.51 x10E6/uL
  HEMATOCRIT: 35.45%
  HEMOGLOBIN: 13.82 G/DL
  LEUKOCYTE COUNT: 13.57 x10E3/uL
  LYMPHOCYTE: 89.83%
  MEAN CORPUSCULAR HEMOGLOBIN: 25.1 pg
  MEAN CORPUSCULAR HEMOGLOBIN CONCENTRATION: 38.98 G/DL
  MEAN CORPUSCULAR VOLUME: 64.42 fL
  MONOCYTE: 1.33%
  NEUTROPHIL: 8.83%
  NUCLEATED RED BLOOD CELLS: 0 /100WBC
  PLATELET COUNT: 1118.17 x10E3/uL
  ALANINE AMINOTRANSFERASE: 55 u/L
  ALBUMIN: 4.15 G/DL
  ALKALINE PHOSPHATASE: 449.5 u/L
  ASPARTATE AMINOTRANSFERASE: 112.83 u/L
  BLOOD UREA NITROGEN: 17.33 mg/dL
  CARBON DIOXIDE: 29.5 mmol/L
  CHLORIDE: 101 MEQ/L
  CHOLESTEROL: 70 mg/dL
  CREATINE PHOSPHOKINASE: 1325.83 u/L
  CREATININE: 0.18 mg/dL
  GLUCOSE: 171.5 mg/dL
  LACTATE DEHYDROGENASE: 386 u/L
  LIPASE: 10 u/L
  PHOSPHORUS: 11.57 mg/dL
  POTASSIUM: 6.21 MEQ/L
  SODIUM: 141.65 MEQ/L
  TOTAL BILIRUBIN: 0.15 mg/dL
  TOTAL PROTEIN: 5.75 G/DL
  URIC ACID: 1.28 mg/dL
[2]
  ABSOLUTE BASOPHIL: 0 CELLS/uL
  ABSOLUTE EOSINOPHIL: 138.17 CELLS/uL
  ABSOLUTE LYMPHOCYTE: 13283.17 CELLS/uL
  ABSOLUTE MONOCYTE: 303.83 CELLS/uL
  ABSOLUTE SEGMENTED NEUTROPHIL: 1308.17 CELLS/uL
  BASOPHIL: 0%
  EOSINOPHIL: 1%
  ERYTHROCYTE COUNT: 5.32 x10E6/uL
  HEMATOCRIT: 33.8%
  HEMOGLOBIN: 13.63 G/DL
  LEUKOCYTE COUNT: 15.03 x10E3/uL
  LYMPHOCYTE: 88.33%
  MEAN CORPUSCULAR HEMOGLOBIN: 25.68 pg
  MEAN CORPUSCULAR HEMOGLOBIN CONCENTRATION: 40.35 G/DL
  MEAN CORPUSCULAR VOLUME: 63.67 fL
  MONOCYTE: 1.83%
  NEUTROPHIL: 8.83%
  NUCLEATED RED BLOOD CELLS: 0 /100WBC
  PLATELET COUNT: 1097.5 x10E3/uL
  ALANINE AMINOTRANSFERASE: 54.5 u/L
  ALBUMIN: 4.27 G/DL
  ALKALINE PHOSPHATASE: 337 u/L
  ASPARTATE AMINOTRANSFERASE: 94.67 u/L
  BLOOD UREA NITROGEN: 17 mg/dL
  CARBON DIOXIDE: 28.33 mmol/L
  CHLORIDE: 101.5 MEQ/L
  CHOLESTEROL: 71.33 mg/dL
  CREATINE PHOSPHOKINASE: 628.17 u/L
  CREATININE: 0.19 mg/dL
  GLUCOSE: 177.83 mg/dL
  LACTATE DEHYDROGENASE: 500.5 u/L
  LIPASE: 9.5 u/L
  PHOSPHORUS: 12.3 mg/dL
  POTASSIUM: 5.63 MEQ/L
  SODIUM: 143.03 MEQ/L
  TOTAL BILIRUBIN: 0.2 mg/dL
  TOTAL PROTEIN: 6.02 G/DL
  URIC ACID: 1.5 mg/dL
[3]
  ABSOLUTE BASOPHIL: 0 CELLS/uL
  ABSOLUTE EOSINOPHIL: 128.33 CELLS/uL
  ABSOLUTE LYMPHOCYTE: 12992 CELLS/uL
  ABSOLUTE MONOCYTE: 35 CELLS/uL
  ABSOLUTE SEGMENTED NEUTROPHIL: 1711.33 CELLS/uL
  BASOPHIL: 0%
  EOSINOPHIL: 1%
  ERYTHROCYTE COUNT: 5.2 x10E6/uL
  HEMATOCRIT: 33.43%
  HEMOGLOBIN: 13.5 G/DL
  LEUKOCYTE COUNT: 14.87 x10E3/uL
  LYMPHOCYTE: 87%
  MEAN CORPUSCULAR HEMOGLOBIN: 26.03 pg
  MEAN CORPUSCULAR HEMOGLOBIN CONCENTRATION: 40.4 G/DL
  MEAN CORPUSCULAR VOLUME: 64.33 fL
  MONOCYTE: 0.33%
  NEUTROPHIL: 11.67%
  NUCLEATED RED BLOOD CELLS: 0 /100WBC
  PLATELET COUNT: 1286.33 x10E3/uL
  ALANINE AMINOTRANSFERASE: 61.67 u/L
  ALBUMIN: 4.23 G/DL
  ALKALINE PHOSPHATASE: 355.67 u/L
  ASPARTATE AMINOTRANSFERASE: 97.67 u/L
  BLOOD UREA NITROGEN: 16.33 mg/dL
  CARBON DIOXIDE: 24 mmol/L
  CHLORIDE: 103.67 MEQ/L
  CHOLESTEROL: 81.33 mg/dL
  CREATINE PHOSPHOKINASE: 1168 u/L
  CREATININE: 0.16 mg/dL
  GLUCOSE: 150.33 mg/dL
  LACTATE DEHYDROGENASE: 169.33 u/L
  LIPASE: 10 u/L
  PHOSPHORUS: 12.27 mg/dL
  POTASSIUM: 5.69 MEQ/L
  SODIUM: 144.2 MEQ/L
  TOTAL BILIRUBIN: 0.13 mg/dL
  TOTAL PROTEIN: 5.83 G/DL
  URIC ACID: 1.53 mg/dL
